Source: the supplement of paper PMC8671470

Experiments:
Conditions in all cases: 72 h
KG-1 [1] = assay: cell viability (% survival relative to DMSO control, bortezomib = 0%); higher = less cytotoxic
How it was run: (§1)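 Fifteen myeloid leukaemia cell lines (10 AML, 5 CML) were seeded at a density titrated to the linear growth range. They went into 384-well plates with compounds pre-printed at 1, 10, 100, 1000 or 10000 nM in duplicate. After 72 h at 37 °C with 5% CO2, viability was read by CellTiter-Glo luminescence. Values are percent survival, with vehicle set to 100% and a 10 µM positive control to 0%, averaged over the duplicates.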

K-562 [2] = assay: as above
How it was run: as §1

ML-2 [3] = assay: as above
How it was run: as §1

BV-173 [4] = assay: as above
How it was run: as §1

THP-1 [5] = assay: as above
How it was run: as §1

HL-60 [6] = assay: as above
How it was run: as §1

KCL-22 [7] = assay: as above
How it was run: as §1

MV4-11 [8] = assay: as above
How it was run: as §1

MOLM-13 [9] = assay: as above
How it was run: as §1

SHI-1 [10] = assay: as above
How it was run: as §1

NOMO-1 [11] = assay: as above
How it was run: as §1

KU-812 [12] = assay: as above
How it was run: as §1

Mono-Mac-6 [13] = assay: as above
How it was run: as §1

HEL [14] = assay: as above
How it was run: as §1

HL-60 [15] = assay: area under dose-response curve (viability, 1 nM-10 uM) (fraction (0-1)); higher = more sensitive
How it was run: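 A rescreen of the full library used HL-60 cells in RPMI 1640 with 10% FBS on 384-well plates, run in duplicate at five tenfold concentrations (1–10,000 nM). Each screen included DMSO or 100 nM of one of three metabolic inhibitors and ran 72 h at 37 °C, 5% CO2. CellTiter-Glo viability was scaled between DMSO and 10 μM proteasome-inhibitor wells. Any area under the curve comes from four-parameter log-logistic fits with drc and PharmacoGx.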

KG-1 [16] = system: KG-1
How it was run: (§2)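 Fifteen myeloid leukaemia lines in RPMI 1640 were treated for 72 h at 37 °C and 5% CO2 with five tenfold doses from 1 to 10,000 nM, in duplicate. ATP luminescence was normalised to vehicle and to a positive control at 10 µM, then fitted with a four-parameter log-logistic model. The IC50 came from these fits.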

K-562 [17] = system: K-562
How it was run: as §2

ML-2 [18] = system: ML-2
How it was run: as §2

BV-173 [19] = system: BV-173
How it was run: as §2

THP-1 [20] = system: THP-1
How it was run: as §2

HL-60 [21] = system: HL-60
How it was run: as §2

KCL-22 [22] = system: KCL-22
How it was run: as §2

MV4-11 [23] = system: MV4-11
How it was run: as §2

MOLM-13 [24] = system: MOLM-13
How it was run: as §2

SHI-1 [25] = system: SHI-1
How it was run: as §2

NOMO-1 [26] = system: NOMO-1
How it was run: as §2

KU-812 [27] = system: KU-812
How it was run: as §2

Mono-Mac-6 [28] = system: Mono-Mac-6
How it was run: as §2

HEL [29] = system: HEL
How it was run: as §2

LAMA-84 = system: LAMA-84
How it was run: as §2

CCC(=O)N1CCN(c2ccc(-n3c(=O)ccc4cnc5ccc(-c6cnc7ccccc7c6)cc5c43)cc2C(F)(F)F)CC1 [Torin1]
Conditions	area under dose-response curve, co-treatment: AZD3965 100 nM	area under dose-response curve, co-treatment: DMSO vehicle	area under dose-response curve, co-treatment: GSK2194069 100 nM	cell viability, 1 nM [%]	cell viability, 10 nM [%]	cell viability, 100 nM [%]	cell viability, 1000 nM [%]	cell viability, 10000 nM [%]
BV-173 [4]	–	–	–	111	80.7	89.1	20.9	8.44
HEL [14]	–	–	–	109	105	99.3	36.4	14.7
HL-60 [6]	–	–	–	73.2	95.1	85.7	65.3	24.6
HL-60 [15]	0.0362	< 0.0301	< 0.0301	–	–	–	–	–
K-562 [2]	–	–	–	108	87	85.9	24.7	11.7
KCL-22 [7]	–	–	–	102	110	87.8	10.9	8.17
KG-1 [1]	–	–	–	94.9	89.7	81.5	29.1	26
KU-812 [12]	–	–	–	97.7	87.1	73.1	24.4	20.1
ML-2 [3]	–	–	–	96.1	99.7	91.5	46.5	33.5
MOLM-13 [9]	–	–	–	93	77.8	70	16.2	12.9
MV4-11 [8]	–	–	–	88.9	95.7	90.8	26.1	11.1
Mono-Mac-6 [13]	–	–	–	92.2	85.5	75.8	35.7	21.7
NOMO-1 [11]	–	–	–	109	96.2	93.4	47.5	37.1
SHI-1 [10]	–	–	–	89.8	92	80.2	48.9	69.4
THP-1 [5]	–	–	–	104	98.5	96.9	58.9	33.9

Conditions	IC50 (cell viability) [µM]
BV-173 [19]	0.377
HEL [29]	0.594
HL-60 [21]	1.75
K-562 [17]	0.327
KCL-22 [22]	0.251
KG-1 [16]	0.295
KU-812 [27]	0.191
LAMA-84	0.222
ML-2 [18]	0.616
MOLM-13 [24]	0.208
MV4-11 [23]	0.486
Mono-Mac-6 [28]	0.333
NOMO-1 [26]	0.672
SHI-1 [25]	> 10
THP-1 [20]	1.11

O[C@H]1[C@H]2[C@H](O)CCCN2C[C@H]1O [Swainsonine]
Conditions	area under dose-response curve, co-treatment: AZD3965 100 nM	area under dose-response curve, co-treatment: DMSO vehicle	area under dose-response curve, co-treatment: GSK2194069 100 nM	area under dose-response curve, co-treatment: pictilisib 100 nM	cell viability, 1 nM [%]	cell viability, 10 nM [%]	cell viability, 100 nM [%]	cell viability, 1000 nM [%]	cell viability, 10000 nM [%]
BV-173 [4]	–	–	–	–	98.1	104	98.3	90.8	86.1
HEL [14]	–	–	–	–	99.2	83.9	108	97.3	92.5
HL-60 [6]	–	–	–	–	107	88	104	95.8	112
HL-60 [15]	< 0.0301	< 0.0301	< 0.0301	< 0.0301	–	–	–	–	–
K-562 [2]	–	–	–	–	109	107	102	101	107
KCL-22 [7]	–	–	–	–	88.9	92.3	102	98.1	89.9
KG-1 [1]	–	–	–	–	108	107	92.2	87.9	93.1
KU-812 [12]	–	–	–	–	104	100	100	99.8	109
ML-2 [3]	–	–	–	–	97.9	97.7	108	86.4	79.5
MOLM-13 [9]	–	–	–	–	97.8	94.2	102	87.7	85.6
MV4-11 [8]	–	–	–	–	102	113	87.2	69.8	69.3
Mono-Mac-6 [13]	–	–	–	–	101	106	106	90	102
NOMO-1 [11]	–	–	–	–	109	103	99.4	94.7	94.1
SHI-1 [10]	–	–	–	–	93.8	110	109	108	102
THP-1 [5]	–	–	–	–	102	102	106	97.8	101

Conditions	IC50 (cell viability) [µM]
BV-173 [19]	> 10
HEL [29]	> 10
HL-60 [21]	> 10
K-562 [17]	> 10
KCL-22 [22]	> 10
KG-1 [16]	> 10
KU-812 [27]	> 10
LAMA-84	> 10
ML-2 [18]	> 10
MOLM-13 [24]	> 10
MV4-11 [23]	> 10
Mono-Mac-6 [28]	> 10
NOMO-1 [26]	> 10
SHI-1 [25]	> 10
THP-1 [20]	> 10

CC(C)c1onc(-c2c(Cl)cccc2Cl)c1COc1ccc(/C=C/c2cccc(C(=O)O)c2)c(Cl)c1 [GW4064]
Conditions	area under dose-response curve, co-treatment: AZD3965 100 nM	area under dose-response curve, co-treatment: DMSO vehicle	area under dose-response curve, co-treatment: pictilisib 100 nM	cell viability, 1 nM [%]	cell viability, 10 nM [%]	cell viability, 100 nM [%]	cell viability, 1000 nM [%]	cell viability, 10000 nM [%]
BV-173 [4]	–	–	–	111	96.2	92.3	87.7	37.4
HEL [14]	–	–	–	85.7	87.2	86.8	87	66.7
HL-60 [6]	–	–	–	115	93.8	89.7	109	51.5
HL-60 [15]	< 0.0301	< 0.0301	< 0.0301	–	–	–	–	–
K-562 [2]	–	–	–	109	107	105	90.9	49.4
KCL-22 [7]	–	–	–	91.5	93.8	96	85.6	31.7
KG-1 [1]	–	–	–	85.6	81.5	95.8	76.8	51.2
KU-812 [12]	–	–	–	96.8	99.7	90.7	85.1	76
ML-2 [3]	–	–	–	95.6	86.2	84	86.2	68.5
MOLM-13 [9]	–	–	–	147	108	93.8	86.7	-0.111
MV4-11 [8]	–	–	–	110	107	78.6	68.2	6.8
Mono-Mac-6 [13]	–	–	–	104	87.6	95.9	86.7	67.7
NOMO-1 [11]	–	–	–	102	99.3	94	95.8	89.5
SHI-1 [10]	–	–	–	110	99.3	101	95.9	53
THP-1 [5]	–	–	–	88.8	92.3	91.5	90.5	54.6

Conditions	IC50 (cell viability) [µM]
BV-173 [19]	6.11
HEL [29]	> 10
HL-60 [21]	> 10
K-562 [17]	6.26
KCL-22 [22]	3.6
KG-1 [16]	8.29
KU-812 [27]	> 10
LAMA-84	4.27
ML-2 [18]	> 10
MOLM-13 [24]	2.34
MV4-11 [23]	1.6
Mono-Mac-6 [28]	> 10
NOMO-1 [26]	> 10
SHI-1 [25]	> 10
THP-1 [20]	> 10
